# Source: article PMC12610274, “Identification of Marrubiin as a Cathepsin C Inhibitor for Treating Rheumatoid Arthritis” (Molecules, 2025)
# Experiments:
# [1] = tested on: Cat G; experiment: NSPs activity in U937 cells after 5 days of treatment, Cat G; type: cell-based, human; conditions: U937, 10 μM
# Experimental: U937 cells in the logarithmic growth phase were collected and equally divided into six portions. Four of these portions were treated with DMSO solutions of the test compound at varying concentrations to achieve final concentrations of 1.25, 2.5, 5, and 10 μM, respectively. An equal volume of DMSO was added to one portion as a blank control, while another portion treated with a DMSO solution of AZD7986 served as a positive control. The cells were cultured under standard U937 conditions for 5 consecutive days, with daily medium changes and fresh compound treatments administered using the same protocol. Following 5 days of treatment, cells were harvested, washed twice thoroughly with phosphate-buffered saline, and lysed in phosphate-buffered saline containing 1% Triton X-100. The lysates were centrifuged to collect the supernatant, and protein concentrations were determined as previously described to ensure equal total protein loading across all samples. The prepared samples were stored at −20 °C until further analysis. Different assay buffers were prepared for diluting samples and measuring the activities of specific NSPs: a buffer containing 50 mM Tris and 750 mM NaCl (pH 7.4) was used for NE and PR3; a buffer containing 50 mM Tris, 750 mM NaCl, 5 mM EDTA (pH 7.4) was used for Cat G; and a buffer containing 25 mM MES, 50 mM NaCl, 5 mM DTT (pH 6.0) was used for CTSC. […]
# [2] = target: CTSC (Homo sapiens, UniProt P53634); experiment: Human recombinant CTSC isolated enzyme assay; type: biochemical; set-up: purchased R&D Systems; conditions: human recombinant CTSC, cell-free, 12-point dose-response; read-out: CTSC Enz (IC50: nM)
# CTSC (Homo sapiens, UniProt P53634), sequence (P53634 25-134 limits assumed): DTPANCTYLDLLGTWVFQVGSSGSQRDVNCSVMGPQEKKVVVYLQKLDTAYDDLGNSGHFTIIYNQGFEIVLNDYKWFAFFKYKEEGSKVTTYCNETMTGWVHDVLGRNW
# CTSC (Homo sapiens, UniProt P53634), sequence (P53634 231-394 limits assumed): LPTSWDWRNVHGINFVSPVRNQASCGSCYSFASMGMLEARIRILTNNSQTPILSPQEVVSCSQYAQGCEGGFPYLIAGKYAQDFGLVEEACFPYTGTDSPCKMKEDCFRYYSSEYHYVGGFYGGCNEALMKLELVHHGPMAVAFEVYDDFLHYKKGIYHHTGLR
# CTSC (Homo sapiens, UniProt P53634), sequence (P53634 395-463 limits assumed): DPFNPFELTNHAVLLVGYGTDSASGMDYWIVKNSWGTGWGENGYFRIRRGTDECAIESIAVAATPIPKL
# Experimental: Both recombinant CTSL and CTSC for in vitro cell-free-based enzymatic activity assay can be purchased from R&D Systems (Minneapolis, MN, USA), a biotechnology company. According to the standardized procedures and material ratios provided by R&D Systems, prepare the activation solution (25 mM MES + 5 mM DTT, pH 6.0) and the assay solution (25 mM MES + 50 mM NaCl + 5 mM DTT, pH 6.0) in advance for later use. Dilute the detection substrate H-Gly-Arg-AMC to a 200 µM solution with the assay solution for standby. Prepare the working solution of compounds to be tested using the assay solution, with the concentration of working solution being 10 times the final test concentration. Dilute CTSC and CTSL, respectively, with cold activation solution. Thoroughly mix the two activation solutions containing the proteins to achieve final concentrations of 300 nM for CTSL and 440 nM for CTSC. After co-incubation for 1 h, the activated CTSC treated with CTSL can be used for the enzymatic activity inhibition efficacy test of compounds. Dilute the activated CTSC to 4.4 nM with cold assay buffer. Incubate 4 μL of the activated CTSC with 1 μL of the compound working solution (test group) or 1 μL of blank assay solution (control group) at room temperature for 3 h. Then, add 5 μL of the detection substrate to achieve a final concentration of 100 μM. Mix 5 µL each of the assay solution and the substrate solution as the blank group. After 1 h, the absorbance of detection substrate was measured using a multifunctional microplate reader at excitation/emission wavelengths of 380 nm/460 nm. The inhibitory efficacy of molecules on enzyme activity was calculated based on the absorbance difference between test group and control group. […] Each group of tests mentioned above was independently repeated at least 3 times, and IC50 values were calculated using SPSS 10.0.
# [3] = target: T1, CTSC (Rattus norvegicus, UniProt P80067); experiment: AIA model, serum CTSC activity; type: in vivo, Sprague-Dawley rats; conditions: high dose 60 mg/kg gavage, 15 days
# T1 construct: from tissue; host or cells: serum of Sprague-Dawley rats (AIA model)
# T1 sequence (P80067 25-462): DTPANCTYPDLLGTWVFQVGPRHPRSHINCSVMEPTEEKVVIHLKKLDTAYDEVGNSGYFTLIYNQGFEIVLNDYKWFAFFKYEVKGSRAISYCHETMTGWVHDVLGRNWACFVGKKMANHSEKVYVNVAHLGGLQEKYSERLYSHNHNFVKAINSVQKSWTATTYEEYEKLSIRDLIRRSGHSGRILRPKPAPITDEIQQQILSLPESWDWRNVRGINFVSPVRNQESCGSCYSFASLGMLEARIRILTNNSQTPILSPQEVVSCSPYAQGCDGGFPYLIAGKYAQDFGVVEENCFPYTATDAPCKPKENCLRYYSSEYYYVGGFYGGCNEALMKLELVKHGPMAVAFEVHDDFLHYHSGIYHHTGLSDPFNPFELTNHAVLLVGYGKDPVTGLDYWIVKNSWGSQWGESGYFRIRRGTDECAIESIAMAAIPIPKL
# Experimental: Thirty 4-week-old male Sprague-Dawley rats (weighing 120–130 g) were randomly divided into 6 groups (5 rats per group) after 1 week of adaptive feeding, namely the normal group, model group, low-dose experimental group (15 mg/kg), medium-dose experimental group (30 mg/kg), high-dose experimental group (60 mg/kg), and positive control group (30 mg/kg). Starting from Day 0 of the experiment, rats in the administration groups and model group were injected intradermally with 0.1 mL of CFA into the left hind paw to induce AIA, while rats in the normal group were injected intradermally with an equal volume (0.1 mL) of normal saline as a control. After 13 consecutive days of feeding, rats treated with CFA successfully developed typical AIA symptoms. […] During the experiment, the body weight, mental state, activity ability, hair color changes, and paw appearance changes of the rats were observed and recorded daily. In addition, on Day 0 of the experiment (baseline period), the basic paw volume of all rats was accurately measured using a plethysmometer, which served as a reference standard for subsequent evaluation of inflammation severity. From Day 13 to Day 28 of the experiment, the paw volume of the rats was measured repeatedly every 3 days. The degree of paw swelling was quantified by calculating the change in paw volume relative to the baseline. […] The cytokine levels in serum were measured. […]
smiles,measurement,setting,value
"C[C@@H]1C[C@H]2OC(=O)[C@@]3(C)CCC[C@@](C)([C@@H]23)[C@@]1(O)CCc1ccoc1 [Marrubiin, marrubiin]","Cat G activity, % of DMSO group",[1],16.9%
same,IC50,[2],57.5 ± 1.3 nM
same,"serum CTSC activity, % of control group",[3],approximately 58%
